Results on one molecule are retold here after US10194854B2, “Method for non-invasive monitoring of fluorescent tracer agent with background separation corrections” (MediBeacon Inc., priority 2017, dated 2019).

This data set can be described thus: Absorption and emission spectra of MB-102 (FIG. 3). Type of data set: physicochemical. The source says: By way of illustrative example, FIG. 3 is a graph summarizing the absorption spectra for HbO2 and Hb, as well as the absorption and emission spectra of frequency spectra of MB-102, an exogenous fluorescent agent in one aspect. Emission spectra for a blue LED light source and a green LED light source are also shown superimposed over the other spectra of FIG. 3. In this aspect, the system 200 may include a blue LED as the first light source 218, and the excitatory wavelength for the system 200 may be the isosbestic wavelength of about 450 nm. […] However, at wavelengths above about 500 nm, the HbO2/Hb spectra are less steeply sloped, and a broader band light source including, but not limited to, an LED with a bandpass filter may suffice for use as a first light source 218.
In another aspect, the excitatory wave length may be selected to enhance the contrast in light absorbance between the exogenous fluorescent agent and the chromophores within the tissues of the patient 202. […] Without being limited to any particular theory, a higher proportion of light illuminating the tissue of the patient 202 at a wavelength of about 450 nm will be absorbed by the MB-102 relative to the HbO2 and Hb, thus enhancing the efficiency of absorption by the MB-102 and reducing the intensity of light at the excitatory wavelength needed to elicit a detectable fluorescence signal. […]

Each structure is given as a SMILES string.

For the molecule `Nc1nc(C(=O)N[C@H](CO)C(=O)O)c(N)nc1C(=O)N[C@H](CO)C(=O)O` [MB-102], the “light absorption relative to the light absorption of the HbO2 and the Hb” value (at the isosbestic wavelength of 452 nm) is reported as “more than three-fold higher”. Besides, the emission peak wavelength entry (emission spectrum) is on record as “about 550 nm”.
